Laboratory results from article PMC8545111, “Molecular Basis of the Versatile Regulatory Mechanism of HtrA-Type Protease AlgW from Pseudomonas aeruginosa” (mBio, 2021).
“And” between values parts separate entries of the source, which are not always exact repeats. Identical values can stand only once. Non-standard residues stand in square brackets, D forms with d. Residues, ends and D or L forms follow the SMILES beside them. *: point of attachment. pNA = O=[N+]([O-])c1ccc(N*)cc1; 2Abz = Nc1ccccc1C(=O)O

Legend:
[1] = test system: T1, AlgW-DegS-LA (63–78); test: Fluorogenic Abz-VLAG-pNA cleavage by peptide-activated AlgW and LA loop mutants (200 nM), 25 mM Tris pH 7.5, 150 mM NaCl, 37°C, Michaelis-Menten fit.; format: biochemical; details: n = 3
T1 construct: residues 30-389; LA loop 76-97 replaced by the corresponding region 63-78 of DegS
Procedure: Based on the identified MucA and MucB cleavage sites for AlgW ([6], [13]), self-quenching fluorogenic tetrapeptides derived from 134-VLAG-137 of MucA (Abz-VLAG-pNA), 211-TVAW-214 of MucB (Abz-TVAW-pNA), and alanine tetrapeptide (Abz-AAAA-pNA) were synthesized and subjected to real-time measurement of AlgW proteolytic activity in the presence of excessive peptides (10 mM) (Fig. 2A). Compared with the negative-control group (using Abz-AAAA-pNA substrate), both Abz-VLAG-pNA and Abz-TVAW-pNA could be efficiently cleaved by AlgW. […]
(§1) For the enzyme mechanism of AlgW (30–389) and mutants, two internally quenched fluorescent peptide substrates incorporating the peptidase cleavage site of MucA/MucB, Abz-VLAG-pNA and Abz-TVAW-pNA, were designed and synthesized (GL Biochem Shanghai Ltd., China). In the intact peptide, the fluorescence of the anthraniloyl group is quenched by the P-nitroaniline (Abz is a fluorogenic group, and pNA is a quencher of fluorescence). This quenched fluorescence is liberated upon cleavage of peptide by 200 nM AlgW and mutants (200/3 nM for trimer), resulting in increased fluorescence that can then be monitored fluorometrically. […] The fluorescent degradation products were monitored at 60-s intervals at fluorescence wavelength—λex = 310 nm, λem = 420 nm ([41]). […]

[2] = test system: AlgW; test: Muc- protease degradation assay; format: biochemical, Pseudomonas aeruginosa; details: MucB 130 μM, AlgW 25 μM; lipid-A 100 μM, DDM 400 μM or decapeptide 100 μM; 25 mM Tris-HCl pH 7.5, 150 mM NaCl, 37°C; 30 min; gel bands
Procedure: (§2) FIG 1 Degradation of MucA and MucB by AlgW in response to the peptides and lipid signals. (A and B) MucB/RseB (130 μM) was cleaved by AlgW/DegS (25 μM) in the presence of different agonist combinations, including lipid-A (100 μM), lipid-like detergent DDM (400 μM), decapeptide SVRDELRWVF (100 μM), and decapeptide combined with lipid-A or DDM. (C and D) MucB/RseB-protected MucA^peri/RseA^peri degradation by AlgW/DegS in the presence of different lengths of the activating peptides in a time-dependent manner. MucA^peri (125 μM), AlgW (25 μM), MucB (130 μM), activation peptides (tripeptide WVF or decapeptide SVRDELRWVF, 100 μM), and lipid-A (100 μM) were incubated at 37°C in a time-dependent manner in buffer (25 mM Tris-HCl pH 7.5, 150 mM NaCl). Similarly, RseA^peri (125 μM) was cleaved by DegS (25 μM) in the presences of RseB (130 μM), activation peptides (tripeptide YYF or decapeptide DNRDGNVYYF, 100 μM), and lipid-A (100 μM) at 37°C in a time-dependent manner in a phosphate buffer containing 50 mM NaHPO4 (pH 7.5), 200 mM NaCl, 10% glycerol, and 4 mM EDTA. (E and F) MucA^peri/RseA^peri was cleaved by AlgW/DegS in the presence of different agonist combinations in a time-dependent manner. MucA^peri (125 μM), AlgW (25 μM), activation decapeptide SVRDELRWVF (100 μM), and lipid-A (100 μM) were incubated at 37°C in a time-dependent manner in buffer. […]

[3] = test system: DegS; test: Rse- protease degradation assay; format: biochemical, Escherichia coli; details: RseA^peri 125 μM, DegS 25 μM, lipid-A 100 μM with or without decapeptide DNRDGNVYYF 100 μM; phosphate buffer pH 7.5, 37°C
Procedure: as §2

[4] = test system: AlgW; test: AlgW activation by agonist gradient (agonists versus velocity), saturated Abz-VLAG-pNA; format: biochemical, Pseudomonas aeruginosa; details: 100 μM Abz-VLAG-pNA, 200 nM AlgW
Procedure: (§3) FIG 2 Determination of enzyme apparent kinetic parameters of dual-signal-activated AlgW. (A) Activity assay of tripeptide or decapeptide-activated AlgW using the quenched fluorescent substrates Abz-VLAG-pNA, Abz-TVAW-pNA, and Abz-AAAA-pNA. All assays were placed in a buffer containing 25 mM Tris (pH 7.5) and 150 mM NaCl at 37°C for 1 h by adding 100 μM substrate, 200 nM AlgW, and 10 mM agonist peptides (tripeptide WVF or decapeptide SVRDELRWVF). (B) The apparent Michaelis-Menten parameters of AlgW cleavage quenched fluorescent substrates Abz-VLAG-pNA (100 μM) under the condition of peptide or lipid activation. (C) The activity assay of peptide or DDM activated AlgW using the saturated quenched fluorescent substrates Abz-VLAG-pNA. Under the gradient of peptide or DDM concentration,100 μM substrate and 200 nM AlgW were coincubated with or without 400 μM DDM or 10 mM agonist peptides in a buffer containing 25 mM Tris (pH 7.5) and 150 mM NaCl at 37°C for 1 h. The final assay volume of all experiments was 100 μl, and the appearance of fluorescent products was monitored at 60-s intervals at fluorescence wavelengths of λex = 310 nm and λem = 420 nm. […] The Kcat for the AlgW trimer was calculated by Kcat = Vmax/(Etotal), (Etotal) = 200/3 nM trimers. […]
as §1

[5] = target: T2, AlgW (Pseudomonas aeruginosa, UniProt Q9HVX1); test: Activation of 200 nM AlgW cleavage of 100 μM Abz-VLAG-pNA by a DDM gradient without agonist peptide, 25 mM Tris pH 7.5, 150 mM NaCl, 37°C, Hill-type fit.; format: biochemical; details: n = 3; read-out: Half-Maximal Activation concentration (μM), DDM gradient
T2 construct: soluble periplasmic region, residues 30-389, pET22b with PreScission-cleavable 6xHis; trimer
T2 sequence (Q9HVX1 entry or part of it): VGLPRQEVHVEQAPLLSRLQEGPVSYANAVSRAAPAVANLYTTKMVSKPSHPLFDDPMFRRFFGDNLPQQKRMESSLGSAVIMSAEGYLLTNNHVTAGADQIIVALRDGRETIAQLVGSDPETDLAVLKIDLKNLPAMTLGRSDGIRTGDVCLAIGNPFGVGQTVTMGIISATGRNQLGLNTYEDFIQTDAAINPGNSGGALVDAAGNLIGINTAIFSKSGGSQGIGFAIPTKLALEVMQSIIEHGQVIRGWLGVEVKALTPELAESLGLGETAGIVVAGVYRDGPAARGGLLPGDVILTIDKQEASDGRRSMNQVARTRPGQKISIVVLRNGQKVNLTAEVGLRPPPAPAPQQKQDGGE
Procedure: as §3, with “Under the gradient of peptide or DDM concentration,100 μM substrate and 200 nM AlgW were coincubated with or without 400 μM DDM or 10 mM agonist peptides in a buffer containing 25 mM Tris (pH 7.5) and 150 mM NaCl at 37°C for 1 h.” left out
In the presence of a fixed amount of AlgW and saturated substrate, we measured the initial rates of AlgW at various concentrations of decapeptide or DDM (Fig. 2C). […]

Compound	Km [1] [µM]	MucB cleavage by AlgW [2]	RseA^peri degradation by DegS [3]	Maximal cleavage activity ([4]; DDM gradient with 10 mM decapeptide (AlgW+Decapeptide), Tris pH 7.5, 37°C, 1 h) [µM/min]	Hill constants ([4]; gradient of the agonist alone)	EC50 ([4]; gradient of the agonist alone, Tris pH 7.5, 37°C, Hill fit, three independent determinations, read-out: Half-Maximal Activation concentration) [µM]	EC50 [5] [µM]
CC(C)C[C@H](NC(=O)[C@@H](NC(=O)c1ccccc1N)C(C)C)C(=O)N[C@@H](C)C(=O)NCC(=O)Nc1ccc([N+](=O)[O-])cc1 [Abz-VLAG-pNA, anthraniloyl-Val-Leu-Ala-Gly-p-nitroaniline (quenched fluorogenic tetrapeptide, MucA 134-137)] (H-[2Abz]VLAG-pNA)	12 ± 2.85						
lipid-A		could be activated	did not display obvious direct or cooperative activation				
CCCCCCCCCCCCO[C@@H]1O[C@H](CO)[C@@H](O[C@H]2O[C@H](CO)[C@@H](O)[C@H](O)[C@H]2O)[C@H](O)[C@H]1O [DDM, N-dodecyl-β-D-maltopyranoside]		could be activated		717.8 ± 15.07	1.43 and 1.43 ± 0.22	92 ± 12.4	92 ± 12.4
